The text below walks through data of US20250114356A1, “INDAZOLE BASED COMPOUNDS AND ASSOCIATED METHODS OF USE” (Arvinas Operations, Inc., priority 2020, published 2025).

For assay [1], the target named is T1, wildtype LRRK2 (Homo sapiens, UniProt Q5S007).
T1 construct: expressed in transfected cells; host or cells: HEK293 (ATCC CRL-1573), transient transfection, ubiquitin promoter
The assay is described as follows: LRRK2 degradation assay, wildtype LRRK2-HiBit expressed from plasmid in HEK293 cells. Type of assay: cell-based. Conditions: HEK293 cells transfected with HiBit-tagged wildtype LRRK2, 24 hours compound incubation; for Dmax: read-out: **WT Dmax (%); for DC50: read-out: *WT DC50. The protocol:
(§1) The assay measures the degradation of wildtype and G2019S LRRK2 tagged with a HiBit tag on the C-terminus of the protein that was expressed from a mammalian expression vector, driven by the ubiquitin promoter in HEK293 cells. Each compound dose-response was repeated on two separate days, on three separate plates each day.
(§2) Plasmid Preparation. Transfection mixes were assembled as follows and incubated for 30 minutes at room temperature. In a 15 mL tube, 5.25 mL Opti-MEM (no additions) was mixed with 17 μL Firefly Luciferase plasmid at 1 μg/μL and 158 μL WT plasmid DNA at 1 μg/μL (175 μg total DNA) were mixed by flicking. In a new 15 mL tube, 5.25 mL OptiMEM was mixed with 17 μL Firefly Luciferase plasmid at 1 μg/μL and 158 μL G2019S plasmid DNA at 1 μg/μL (175 μg total DNA) were mixed by flicking. X-tremeGene HP was mixed thoroughly using a vortex. Next, 175 μL was added to each tube and flicked to mix. Both tubes were left to incubate for 30 minutes at room temperature.
(§3) While the transfection mixes were incubating, HEK293 cells (acquired from ATCC; ATCC CRL-1573) were harvested with trypsin. Once cells are detached, the cells were resuspended in 12 mL OptiMEM+5% FBS and transferred to a 50 mL tube. The cells were mixed well and counted. Using OptiMEM+5% FBS, the cells were diluted in two 250 mL conical tubes at 0.71×10^6 cells/mL in 70 mL. One tube was labeled “WT” and the other “G2019S”. The WT and G2019S transfection mixes were added dropwise to the corresponding 250 mL tubes. The tubes were mixed first by pipetting then by swirling. The tubes were incubated at room temperature for at least 5 minutes.
(§4) Each tube was swirled before dispensing and after every three plates. Seventy microliters of cells were dispensed with WT or G2019S DNA to seven plates each. Three plates of each were tested with compound plate one (preparation described below) and three plates of each were tested with compound plate two (preparation described below). The first plate from each set served as a “prime” plate and was not used to test compounds. Each plate was incubated in the hood for 10 minutes before placing in the 37° C. incubator for 24 hours.
(§5) Preparation of Compound and Assay Plates. Two compound plates were made using 96 well polypropylene plates. Compounds were made up at 10 mM and were diluted to 1 mM in 30 μL. Each dose response curve included a well of DMSO, as a negative control and for normalization, and a well of 0.5 μM of Exemplary Compound 4 as a positive control. In addition to seven test compounds, each plate also included a dose response of Exemplary Compound 4. The compound plates were spun down along at 1200 rpm for 2 minutes.
(§6) The two compound plates were then mixed and 2 μL was diluted in intermediate plates having 248 μL of Opti-Mem in each well. Next, 10 μL diluted compounds from the intermediate plates were added to each test plate (three WT and three G2019S plates per compound plate for a total of 12 assay plates). The plates were incubated for 24 hours at 37° C.
(§7) All assay plates and all Nano-Glo Dual-Luciferase Reporter Assay System components (except for the DLR substrate) were equilibrated to room temperature. Next, the luciferase buffer was mixed with the lyophilized amber bottle until fully dissolved, and 75 μL of the luciferase mixture was added to each well of each assay plate. The assay plates were incubated for 10 minutes at room temperature with shaking for at least 5 minutes, and then read on a plate reader.
(§8) Developing Plates and Analyzing Data. One milliliter of DLR substrate and 1 mL LgBiT Protein were added to the Stop and Glo buffer, and 75 μL of the mixture was added to each well of each plate. Optically clear seals were added to each plate and each plate was incubated for 20 minutes with shaking for at least 10 minutes, and then read on a plate reader. […]

Assay [2] deals with T2, G2019S LRRK2 (Homo sapiens, UniProt Q5S007, G2019S).
T2 construct: expressed in transfected cells; host or cells: HEK293 (ATCC CRL-1573), transient transfection, ubiquitin promoter
As to the kind of experiment: LRRK2 degradation assay, G2019S LRRK2-HiBit expressed from plasmid in HEK293 cells. The assay is classed as cell-based. To be noted: HEK293 cells transfected with HiBit-tagged G2019S LRRK2, 24 hours compound incubation. As to the method:
as §1, §2, §3, §4, §5, §6, §7, §8

T2 sequence (Q5S007 whole entry G2019S): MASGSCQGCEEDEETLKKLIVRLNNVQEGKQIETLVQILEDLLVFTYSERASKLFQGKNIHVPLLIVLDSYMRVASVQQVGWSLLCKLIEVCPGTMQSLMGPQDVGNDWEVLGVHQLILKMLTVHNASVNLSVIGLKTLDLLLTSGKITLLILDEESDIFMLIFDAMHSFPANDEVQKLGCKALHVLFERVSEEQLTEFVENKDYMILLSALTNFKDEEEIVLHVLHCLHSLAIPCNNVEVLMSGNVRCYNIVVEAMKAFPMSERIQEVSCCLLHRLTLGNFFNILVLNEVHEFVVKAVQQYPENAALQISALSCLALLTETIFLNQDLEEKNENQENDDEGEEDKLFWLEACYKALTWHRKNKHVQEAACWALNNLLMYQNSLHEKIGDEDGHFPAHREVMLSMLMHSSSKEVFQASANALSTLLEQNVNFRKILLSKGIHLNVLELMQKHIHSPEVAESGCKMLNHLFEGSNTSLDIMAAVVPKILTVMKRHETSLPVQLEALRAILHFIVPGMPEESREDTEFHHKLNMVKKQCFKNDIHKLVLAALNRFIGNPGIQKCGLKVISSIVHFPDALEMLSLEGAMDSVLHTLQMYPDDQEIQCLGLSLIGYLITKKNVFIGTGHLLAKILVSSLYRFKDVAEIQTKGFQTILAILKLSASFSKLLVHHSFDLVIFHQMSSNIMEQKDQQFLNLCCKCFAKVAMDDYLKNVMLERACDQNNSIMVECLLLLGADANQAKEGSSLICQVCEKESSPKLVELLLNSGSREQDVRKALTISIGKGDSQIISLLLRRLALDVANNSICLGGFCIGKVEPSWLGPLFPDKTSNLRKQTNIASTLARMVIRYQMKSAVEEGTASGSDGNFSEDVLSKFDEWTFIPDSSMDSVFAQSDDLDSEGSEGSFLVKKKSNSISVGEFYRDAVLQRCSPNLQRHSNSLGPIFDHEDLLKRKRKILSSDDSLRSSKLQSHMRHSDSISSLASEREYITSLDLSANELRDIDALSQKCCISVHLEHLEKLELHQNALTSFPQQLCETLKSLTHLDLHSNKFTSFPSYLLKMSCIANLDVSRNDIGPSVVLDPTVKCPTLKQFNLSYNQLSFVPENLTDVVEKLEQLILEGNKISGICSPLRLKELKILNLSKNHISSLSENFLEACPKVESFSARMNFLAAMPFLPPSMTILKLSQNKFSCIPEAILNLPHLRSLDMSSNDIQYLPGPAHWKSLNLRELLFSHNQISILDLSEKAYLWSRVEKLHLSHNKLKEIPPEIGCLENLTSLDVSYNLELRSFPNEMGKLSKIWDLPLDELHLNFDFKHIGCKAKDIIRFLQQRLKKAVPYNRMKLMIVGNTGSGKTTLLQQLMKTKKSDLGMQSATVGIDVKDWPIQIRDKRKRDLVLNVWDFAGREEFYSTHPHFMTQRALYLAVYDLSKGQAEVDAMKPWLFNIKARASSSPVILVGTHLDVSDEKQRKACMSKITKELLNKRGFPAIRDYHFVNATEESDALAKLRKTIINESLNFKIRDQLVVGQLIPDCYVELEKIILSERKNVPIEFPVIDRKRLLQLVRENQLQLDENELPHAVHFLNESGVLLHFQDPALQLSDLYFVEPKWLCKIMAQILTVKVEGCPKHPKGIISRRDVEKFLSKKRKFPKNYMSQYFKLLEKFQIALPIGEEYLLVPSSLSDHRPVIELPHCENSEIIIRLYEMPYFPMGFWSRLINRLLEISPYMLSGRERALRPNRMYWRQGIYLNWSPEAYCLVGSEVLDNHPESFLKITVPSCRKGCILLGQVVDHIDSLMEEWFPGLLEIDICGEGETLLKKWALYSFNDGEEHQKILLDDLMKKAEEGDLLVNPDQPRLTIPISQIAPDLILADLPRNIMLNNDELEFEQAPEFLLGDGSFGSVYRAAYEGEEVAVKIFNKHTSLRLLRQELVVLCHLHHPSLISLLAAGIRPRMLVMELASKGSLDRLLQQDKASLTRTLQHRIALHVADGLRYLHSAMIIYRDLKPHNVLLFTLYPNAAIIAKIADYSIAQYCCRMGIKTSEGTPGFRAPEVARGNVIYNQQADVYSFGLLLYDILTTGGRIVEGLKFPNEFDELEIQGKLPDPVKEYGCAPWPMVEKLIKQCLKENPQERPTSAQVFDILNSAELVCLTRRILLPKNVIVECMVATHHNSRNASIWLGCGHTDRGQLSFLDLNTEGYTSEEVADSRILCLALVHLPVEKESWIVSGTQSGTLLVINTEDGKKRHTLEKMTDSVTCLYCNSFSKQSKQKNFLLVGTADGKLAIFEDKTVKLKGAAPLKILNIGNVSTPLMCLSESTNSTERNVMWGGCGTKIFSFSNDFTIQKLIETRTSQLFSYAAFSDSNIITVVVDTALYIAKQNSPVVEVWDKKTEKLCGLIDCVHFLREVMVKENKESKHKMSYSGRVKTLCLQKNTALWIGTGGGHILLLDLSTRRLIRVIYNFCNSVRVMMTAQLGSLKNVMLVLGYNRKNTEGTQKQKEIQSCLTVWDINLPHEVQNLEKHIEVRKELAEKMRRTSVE
T1 sequence (Q5S007 whole entry): as the sequence (Q5S007 whole entry G2019S) above, with S2019G counted along it

For `C[C@H]1CN(c2cc(-c3n[nH]c4ccc(OC5(C)CC5)cc34)ccn2)CCN1CCOCCOCCOCCOc1ccc2c(c1)C(=O)N(C1CCC(=O)NC1=O)C2=O` (stereo partly drawn) [compound 12, 2-(2,6-dioxopiperidin-3-yl)-5-{2-[2-(2-{2-[(2S)-2-methyl-4-{4-[5-(1-methylcyclopropoxy)-1H-indazol-3-yl]pyridin-2-yl}piperazin-1-yl]ethoxy}ethoxy)ethoxy]ethoxy}-2,3-dihydro-1H-isoindole-1,3-dione], in assay [1], the Dmax was at least 70% and the DC50 is below 0.01 µM. In assay [2], this compound came in with a DC50 below 0.01 µM and a Dmax of at least 70%.
`C[C@H]1CN(c2cc(-c3n[nH]c4ccc(OC5(C)CC5)cc34)ncn2)CCN1CCOCCOCCOCCOc1ccc(C(=O)NC2CCC(=O)NC2=O)c(F)c1` (stereo partly drawn) [compound 13, N-(2,6-dioxopiperidin-3-yl)-2-fluoro-4-{2-[2-(2-{2-[(2S)-2-methyl-4-{6-[5-(1-methylcyclopropoxy)-1H-indazol-3-yl]pyrimidin-4-yl}piperazin-1-yl]ethoxy}ethoxy)ethoxy]ethoxy}benzamide]: the Dmax in assay [1] and in assay [2] was below 50% throughout. Further, the DC50 in assay [1] and in assay [2] was 0.01 to 0.05 µM throughout.
On to `CC(C)Oc1cc2c(-c3ccnc(N4CCN(CCOCCOCCOCCOc5ccc6c(c5)C(=O)N(C5CCC(=O)NC5=O)C6=O)[C@@H](C)C4)c3)n[nH]c2cc1F` (stereo partly drawn) [compound 14, 2-(2,6-dioxopiperidin-3-yl)-5-{2-[2-(2-{2-[(2S)-4-{4-[6-fluoro-5-(propan-2-yloxy)-1H-indazol-3-yl]pyridin-2-yl}-2-methylpiperazin-1-yl]ethoxy}ethoxy)ethoxy]ethoxy}-2,3-dihydro-1H-isoindole-1,3-dione], for which, in assay [1], the Dmax was at least 70% and the DC50 was at least 0.1 µM. Besides, in assay [2], the half-maximal degradation concentration (DC50) is at least 0.1 µM and the Dmax lay within 50 to 70%.
Consider `CC(C)Oc1cc2c(-c3cc(N4CCN(CCOCCOCCOCCOc5ccc6c(c5)C(=O)N(C5CCC(=O)NC5=O)C6=O)[C@@H](C)C4)ncn3)n[nH]c2cc1F` (stereo partly drawn) [compound 15, 2-(2,6-dioxopiperidin-3-yl)-5-{2-[2-(2-{2-[(2S)-4-{6-[6-fluoro-5-(propan-2-yloxy)-1H-indazol-3-yl]pyrimidin-4-yl}-2-methylpiperazin-1-yl]ethoxy}ethoxy)ethoxy]ethoxy}-2,3-dihydro-1H-isoindole-1,3-dione], for which the Dmax in assay [1] and in assay [2] was below 50% throughout. Further, the half-maximal degradation concentration (DC50) in assay [1] and in assay [2] was at least 0.1 µM in each case.
With `C[C@H]1CN(c2cc(-c3n[nH]c4ccc(OC(C)(C)C)cc34)ncn2)CCN1CCOCCOCCOCCOc1ccc2c(c1)C(=O)N(C1CCC(=O)NC1=O)C2=O` (stereo partly drawn) [compound 16, 5-{2-[2-(2-{2-[(2S)-4-{6-[5-(tert-butoxy)-1H-indazol-3-yl]pyrimidin-4-yl}-2-methylpiperazin-1-yl]ethoxy}ethoxy)ethoxy]ethoxy}-2-(2,6-dioxopiperidin-3-yl)-2,3-dihydro-1H-isoindole-1,3-dione], in assay [1], the Dmax was below 50% and the DC50 is at least 0.1 µM. In assay [2], the DC50 is at least 0.1 µM and the Dmax was below 50%.
Regarding `CC1(Oc2ccc3[nH]nc(-c4cc(N5CCO[C@@H](CCOCCOCCOCCOc6ccc7c(c6)C(=O)N(C6CCC(=O)NC6=O)C7=O)C5)ncn4)c3c2)CC1` (stereo partly drawn) [compound 18, 2-(2,6-dioxopiperidin-3-yl)-5-{2-[2-(2-{2-[(2S)-4-{6-[5-(1-methylcyclopropoxy)-1H-indazol-3-yl]pyrimidin-4-yl}morpholin-2-yl]ethoxy}ethoxy)ethoxy]ethoxy}-2,3-dihydro-1H-isoindole-1,3-dione], in assay [1], the Dmax was at least 70% and the DC50 was below 0.01 µM. Also, in assay [2], the DC50 was below 0.01 µM and the Dmax is at least 70%.
On to `C[C@H]1CN(c2cc(-c3n[nH]c4ccc(OC5(C)CC5)cc34)ncn2)CCN1CCOCCOCCOCCOc1ccc2c(c1)C(=O)N(C1(C)CCC(=O)NC1=O)C2=O` (stereo partly drawn) [compound 19, 2-(3-methyl-2,6-dioxopiperidin-3-yl)-5-{2-[2-(2-{2-[(2S)-2-methyl-4-{6-[5-(1-methylcyclopropoxy)-1H-indazol-3-yl]pyrimidin-4-yl}piperazin-1-yl]ethoxy}ethoxy)ethoxy]ethoxy}-2,3-dihydro-1H-isoindole-1,3-dione], for which the Dmax in assay [1] and in assay [2] was below 50% throughout. Moreover, the DC50 was at least 0.1 µM in assay [1] and 0.01 to 0.05 µM in assay [2].
Consider `C[C@H]1CN(c2cc(-c3n[nH]c4ccc(OC5(C)CC5)cc34)ncn2)CCN1CCOCCN1CCN(c2ccc3c(c2)C(=O)N(C2CCC(=O)NC2=O)C3=O)CC1` (stereo partly drawn) [compound 20, 2-(2,6-dioxopiperidin-3-yl)-5-[4-(2-{2-[(2S)-2-mcthyl-4-{6-[5-(1-methylcyclopropoxy)-1H-indazol-3-yl]pyrimidin-4-yl}piperazin-1-yl]ethoxy}ethyl)piperazin-1-yl]-2,3-dihydro-1H-isoindole-1,3-dione], for which the Dmax in assay [1] and in assay [2] was 50 to 70% in each case. Also, the DC50 in assay [1] and in assay [2] was below 0.01 µM each time.
Regarding `C[C@@H]1CN(c2cc(-c3n[nH]c4ccc(OC5(C)CC5)cc34)ncn2)C[C@H](C)N1CCOCCN1CCN(c2ccc3c(c2)C(=O)N(C2CCC(=O)NC2=O)C3=O)CC1` (stereo partly drawn) [compound 21, 5-[4-(2-{2-[(2R,6S)-2,6-dimethyl-4-{6-[5-(1-methylcyclopropoxy)-1H-indazol-3-yl]pyrimidin-4-yl}piperazin-1-yl]ethoxy}ethyl)piperazin-1-yl]-2-(2,6-dioxopiperidin-3-yl)-2,3-dihydro-1H-isoindole-1,3-dione], the Dmax is at least 70% in assay [1] and 50 to 70% in assay [2]. Further, the DC50 in assay [1] and in assay [2] was below 0.01 µM each time.
For `CC(C)Oc1ccc2[nH]nc(-c3cc(N4CCN(CCOCCN5CCN(c6ccc7c(c6)C(=O)N(C6CCC(=O)NC6=O)C7=O)CC5)[C@@H](C)C4)ncn3)c2c1` (stereo partly drawn) [compound 22, 2-(2,6-dioxo-3-piperidyl)-5-[4-[2-[2-[(2S)-4-[6-(5-isopropoxy-1H-indazol-3-yl)pyrimidin-4-yl]-2-methyl-piperazin-1-yl]ethoxy]ethyl]piperazin-1-yl]isoindoline-1,3-dione], in assay [1], the Dmax is below 50% and the DC50 is 0.01 to 0.05 µM. In assay [2], this compound displayed a DC50 of 0.01 to 0.05 µM and a Dmax below 50%.
As to `CC(C)Oc1ccc2[nH]nc(-c3cc(N4CCN(CCCCN5CCN(c6ccc7c(c6)C(=O)N(C6CCC(=O)NC6=O)C7=O)CC5)[C@@H](C)C4)ncn3)c2c1` (stereo partly drawn) [compound 23, 2-(2,6-dioxopiperidin-3-yl)-5-(4-{4-[(2S)-2-methyl-4-{6-[5-(propan-2-yloxy)-1H-indazol-3-yl]pyrimidin-4-yl}piperazin-1-yl]butyl}piperazin-1-yl)-2,3-dihydro-1H-isoindole-1,3-dione], in assay [1], the Dmax lay in the range of 50 to 70% and the 50% degradation concentration (DC50) is below 0.01 µM. Moreover, in assay [2], the DC50 is below 0.01 µM and the Dmax fell in the range of 50 to 70%.
